From ChEMBL document CHEMBL1129544, “A structure-activity relationship study of novel phenylacetamides which are sodium channel blockers” (J Med Chem, 1996)

Target: Sodium channel protein type 2 subunit alpha (Rattus norvegicus, UniProt P04775)
Assay: Inhibitory activity against type IIA sodium channel in CNaIIA-1 cell line expressed in CHO cells
Assay type: cell-based

Chain of Sodium channel protein type 2 subunit alpha (P04775 whole entry): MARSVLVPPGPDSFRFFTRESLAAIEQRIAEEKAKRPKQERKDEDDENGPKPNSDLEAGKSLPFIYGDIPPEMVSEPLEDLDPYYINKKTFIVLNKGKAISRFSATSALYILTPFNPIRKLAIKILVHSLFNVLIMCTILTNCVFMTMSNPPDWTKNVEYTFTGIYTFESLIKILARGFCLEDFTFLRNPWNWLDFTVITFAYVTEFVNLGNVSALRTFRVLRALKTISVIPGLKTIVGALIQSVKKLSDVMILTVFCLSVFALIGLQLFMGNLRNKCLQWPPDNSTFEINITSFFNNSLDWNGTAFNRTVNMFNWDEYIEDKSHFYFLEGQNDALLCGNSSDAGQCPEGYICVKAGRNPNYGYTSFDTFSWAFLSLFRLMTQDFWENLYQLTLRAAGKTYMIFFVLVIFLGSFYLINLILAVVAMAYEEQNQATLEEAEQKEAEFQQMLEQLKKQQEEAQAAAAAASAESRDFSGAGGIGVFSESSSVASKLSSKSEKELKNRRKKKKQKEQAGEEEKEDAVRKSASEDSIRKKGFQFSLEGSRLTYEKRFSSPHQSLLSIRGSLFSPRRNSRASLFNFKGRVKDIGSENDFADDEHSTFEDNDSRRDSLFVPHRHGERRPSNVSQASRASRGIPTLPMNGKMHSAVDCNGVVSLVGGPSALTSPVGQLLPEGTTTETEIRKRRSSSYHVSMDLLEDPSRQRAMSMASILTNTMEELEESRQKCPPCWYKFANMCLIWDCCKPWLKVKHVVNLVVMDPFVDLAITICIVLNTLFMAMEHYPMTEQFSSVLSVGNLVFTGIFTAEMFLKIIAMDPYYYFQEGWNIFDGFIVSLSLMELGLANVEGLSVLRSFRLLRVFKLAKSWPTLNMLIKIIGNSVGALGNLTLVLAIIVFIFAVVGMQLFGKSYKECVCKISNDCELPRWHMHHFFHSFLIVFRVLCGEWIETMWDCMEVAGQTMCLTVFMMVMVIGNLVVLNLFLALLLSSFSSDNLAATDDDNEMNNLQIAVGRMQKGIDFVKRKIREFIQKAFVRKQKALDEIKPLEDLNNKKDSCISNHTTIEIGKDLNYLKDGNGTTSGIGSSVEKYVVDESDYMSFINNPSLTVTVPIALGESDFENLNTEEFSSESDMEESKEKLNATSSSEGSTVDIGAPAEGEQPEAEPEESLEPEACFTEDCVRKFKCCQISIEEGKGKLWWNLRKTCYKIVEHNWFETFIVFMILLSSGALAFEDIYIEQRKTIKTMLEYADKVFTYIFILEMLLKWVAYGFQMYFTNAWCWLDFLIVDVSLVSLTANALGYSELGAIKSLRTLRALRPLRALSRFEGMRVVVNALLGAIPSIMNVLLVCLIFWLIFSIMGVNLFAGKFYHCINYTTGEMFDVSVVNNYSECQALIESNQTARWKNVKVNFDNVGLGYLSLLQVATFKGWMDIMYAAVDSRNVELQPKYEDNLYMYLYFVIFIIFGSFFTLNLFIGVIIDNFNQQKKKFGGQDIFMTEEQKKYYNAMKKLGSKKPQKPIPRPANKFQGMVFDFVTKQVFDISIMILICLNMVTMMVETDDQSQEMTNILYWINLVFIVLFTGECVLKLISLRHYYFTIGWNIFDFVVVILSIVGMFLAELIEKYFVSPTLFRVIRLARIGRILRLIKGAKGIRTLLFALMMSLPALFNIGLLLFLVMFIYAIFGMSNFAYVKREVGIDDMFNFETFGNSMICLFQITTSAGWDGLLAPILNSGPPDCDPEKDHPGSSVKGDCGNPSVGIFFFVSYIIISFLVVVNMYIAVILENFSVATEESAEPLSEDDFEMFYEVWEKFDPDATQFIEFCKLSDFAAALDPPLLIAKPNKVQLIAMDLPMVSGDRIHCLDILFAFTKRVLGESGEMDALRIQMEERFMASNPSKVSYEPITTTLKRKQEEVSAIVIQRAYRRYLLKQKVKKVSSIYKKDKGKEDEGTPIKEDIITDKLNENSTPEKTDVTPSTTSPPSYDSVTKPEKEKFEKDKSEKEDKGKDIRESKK

SMILES | IC50
O=C(NCCCN1CCC(n2c(=O)[nH]c3ccccc32)CC1)C(c1ccccc1)c1ccccc1 | 0.72 µM
O=C(NCCCN1CCN(Cc2ccccc2)CC1)C(c1ccccc1)c1ccccc1 | 0.7 µM
CC1CN(CCCNC(=O)C(c2ccccc2)c2ccccc2)CC(C)O1 (stereo not drawn) | 2.7 µM
O=C(NC1CN2CCC1CC2)C(c1ccccc1)c1ccccc1 (stereo not drawn) | 95 µM
O=c1[nH]c2ccccc2n1C1CCN(CCCC(c2ccc(F)cc2)c2ccc(F)cc2)CC1 [PIMOZIDE] | 0.34 µM
O=C(NCCCCN1CCCCC1)C(c1ccccc1)c1ccccc1 | 10 µM
CN(C)CCCN(C)C(=O)C(c1ccccc1)c1ccccc1 | > 200 µM
CCN(CC)CCCNC(=O)C(c1ccccc1)c1ccccc1 | 4.4 µM
O=C(NCCCN1CCOCC1)C(c1ccccc1)c1ccccc1 | 6.5 µM
CN1CCN(CCCNC(=O)C(c2ccccc2)c2ccccc2)CC1 | > 200 µM
COc1ccccc1N1CCN(CCCNC(=O)C(c2ccccc2)c2ccccc2)CC1 | 1.2 µM
CC1CCC(C)N1CCCNC(=O)C(c1ccccc1)c1ccccc1 (stereo not drawn) | 4.6 µM
CN1CCCC1CCNC(=O)C(c1ccccc1)c1ccccc1 (stereo not drawn) | 32 µM
O=C(NCCCN1CCC(Oc2ccccc2)CC1)C(c1ccccc1)c1ccccc1 | 1.4 µM
CC(CNC(=O)C(c1ccccc1)c1ccccc1)CN1CCC(c2ccccc2)CC1 (stereo not drawn) | 1.5 µM
CN(C)CCCNC(=O)C(c1ccccc1)c1ccccc1 | 20 µM
O=C(NCCN1CCCCC1)C(c1ccccc1)c1ccccc1 | 7.2 µM
NCCCNC(=O)C(c1ccccc1)c1ccccc1 | 40 µM
O=C(NCCCN1CCC(O)(c2ccccc2)CC1)C(c1ccccc1)c1ccccc1 | 2.2 µM
O=C(NCCCN1CCCCC1)C(c1ccccc1)c1ccccc1 | 5.3 µM
CN(CCCNC(=O)C(c1ccccc1)c1ccccc1)Cc1ccccc1 | 1.2 µM
O=C(NCCCN1CCC(c2ccccc2)CC1)C(c1ccccc1)c1ccccc1 | 1.1 µM
O=C(NCCCN1CCC(Cc2ccccc2)CC1)C(c1ccccc1)c1ccccc1 | 0.6 µM
